Results as given in paper PMC10857906, “PROTAC-mediated NR4A1 degradation as a novel strategy for cancer immunotherapy” (The Journal of Experimental Medicine, 2024).

Tests used:
NR4A1 mRNA = NR4A1 mRNA by qPCR in CHL-1 cells; format: cell-based, human; conditions: 500 nM, ACTB as control
Description: Total RNA was extracted from cells using RNeasy Kits (74004; QIAGEN) following the manufacturer’s instructions. cDNA synthesis was performed using SuperScript III Reverse Transcriptase (18080044; Thermo Fisher Scientific) with 100 ng RNA as the template. Amplification of cDNA was carried out using 2× PowerUP SYBR Green Master Mix (A25778; Thermo Fisher Scientific). Each reaction was conducted in triplicates and results were normalized to the expression of a housekeeping gene. Primer (Eurofins): human β-actin (forward sequence: 5′-CACCATTGGCAATGAGCGGTTC-3′; reverse sequence: 5′-AGGTCTTTGCGGATGTCCACGT-3′) and human NR4A1 (forward sequence: 5′-GGACAACGCTTCATGCCAGCAT-3′; reverse sequence: 5′-CCTTGTTAGCCAGGCAGATGTAC-3′).

TI-B cells = experiment: Immune profile by flow cytometry in Yumm1.7 tumor-bearing mice; format: in vivo, mouse; conditions: Yumm1.7 tumors, 2 doses of 1.8 mg/kg i.p.
Description: For syngeneic tumor models, 5 × 10^5 cells MC38, Yumm1.7, and Yummer1.7, 1 × 10^5 cells of B16F10 were resuspended in PBS and implanted into 7–9-wk-old mice subcutaneously. For the tumor inhibition experiment, mice were treated with 1.8 mg/kg NR-V04 or 0.75 mg/kg celastrol by i.p. injection twice weekly. For the immune profile experiment, once tumors reached 0.5 cm in diameter, mice were treated with 1.8 mg/kg NR-V04 by i.p. injection twice weekly. For the toxicity experiment, male and female non-tumor-bearing mice were treated with 2 mg/kg NR-V04 for two doses in the first week and 5 mg/kg for another two doses in the second week. Blood samples were taken from the submandibular (facial) vein before each treatment and 42 days later for hematological analysis, and body weight was measured twice per week up to day 42. Mice were euthanized in accordance with the IACUC protocol once the largest tumors reached 2 cm in diameter, and tissues were collected for further analysis.
Mouse tumors were excised and ∼200 mg of tumor tissue was enzymatically and mechanically digested using the mouse Tumor Dissociation Kit (Miltenyi Biotec) to obtain a single-cell suspension. […] Flow cytometry was performed on a three laser Cytek Aurora Cytometer (Cytek Biosciences) and analyzed using FlowJo software (BD Biosciences). […]

NR4A1 and VHL = NR4A1 and VHL (Homo sapiens, UniProt P22736+P40337); experiment: Proximity ligation assay (PLA) for the NR4A1-VHL ternary complex; format: cell-based; parameters: endogenous in cells; host or cells: CHL-1 and A375 human melanoma cells; conditions: CHL-1 and A375 cells, 500 nM, 16 h, 0.5 μM MG132 pretreatment
Chain of NR4A1 and VHL (P22736 whole entry): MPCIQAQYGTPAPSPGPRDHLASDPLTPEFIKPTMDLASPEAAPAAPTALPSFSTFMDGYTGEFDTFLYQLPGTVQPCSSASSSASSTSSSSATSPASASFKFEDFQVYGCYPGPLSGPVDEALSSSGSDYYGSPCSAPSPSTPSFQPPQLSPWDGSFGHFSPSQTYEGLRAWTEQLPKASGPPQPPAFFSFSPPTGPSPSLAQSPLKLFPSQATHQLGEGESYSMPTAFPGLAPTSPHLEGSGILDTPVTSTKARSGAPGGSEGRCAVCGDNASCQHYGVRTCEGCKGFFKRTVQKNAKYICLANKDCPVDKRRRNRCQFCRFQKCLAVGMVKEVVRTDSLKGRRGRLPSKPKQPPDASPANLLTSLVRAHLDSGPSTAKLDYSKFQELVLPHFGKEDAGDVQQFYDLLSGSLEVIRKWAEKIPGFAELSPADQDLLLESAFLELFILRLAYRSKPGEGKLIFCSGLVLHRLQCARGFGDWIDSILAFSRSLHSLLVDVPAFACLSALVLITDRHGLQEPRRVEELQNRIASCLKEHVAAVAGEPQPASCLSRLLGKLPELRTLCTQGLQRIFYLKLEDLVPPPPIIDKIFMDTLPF
Chain of NR4A1 and VHL (P40337 whole entry): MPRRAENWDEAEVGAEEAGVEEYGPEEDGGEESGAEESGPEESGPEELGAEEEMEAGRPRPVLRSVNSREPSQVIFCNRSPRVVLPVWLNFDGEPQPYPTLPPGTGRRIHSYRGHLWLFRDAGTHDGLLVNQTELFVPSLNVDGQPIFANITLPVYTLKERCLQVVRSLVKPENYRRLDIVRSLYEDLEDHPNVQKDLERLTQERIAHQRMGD
Chain of NR4A1 and VHL (Q15369 whole entry partner): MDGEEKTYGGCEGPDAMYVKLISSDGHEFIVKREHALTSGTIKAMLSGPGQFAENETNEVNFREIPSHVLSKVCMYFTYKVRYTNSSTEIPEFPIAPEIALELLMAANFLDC
Chain of NR4A1 and VHL (Q15370 whole entry partner): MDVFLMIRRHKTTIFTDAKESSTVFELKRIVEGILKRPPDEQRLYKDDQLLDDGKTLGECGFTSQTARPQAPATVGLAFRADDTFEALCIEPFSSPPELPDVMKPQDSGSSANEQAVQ
Description: 5 × 10^4 CHL-1 and A375 cells were cultured in Nunc Lab-Tek Chamber Slide (177402; Thermo Fisher Scientific). The cells were treated with DMSO, 500 nM celastrol, and 500 nM NR-V04 for 16 h with MG132 inhibitor. The PLA was conducted with Duolink In Situ Red Starter Kit Mouse/Rabbit (DUO92101; Sigma-Aldrich) following the standard protocol. Additionally, a non-stain cell group was included as a negative control to account for background signal during PLA assay. The signal was detected using a confocal microscope (LSM 710; Zeiss). Primary antibody: NR4A1 (HPA059742, 2 μg/ml, isotype-rabbit; Sigma-Aldrich) and VHL (MA5-13940, 2 μg/ml, isotype-mouse; Thermo Fisher Scientific).

`CC1=C(O)C(=O)C=C2C1=CC=C1[C@@]2(C)CC[C@@]2(C)[C@@H]3C[C@](C)(C(=O)NCCOCCOCCOCCOCC(=O)N[C@H](C(=O)N4C[C@H](O)C[C@H]4C(=O)N[C@@H](C)c4ccc(-c5scnc5C)cc4)C(C)(C)C)CC[C@]3(C)CC[C@]12C` [NR-V04] was tested, and the “NR4A1 mRNA level” value (NR4A1 mRNA) was “increased NR4A1 mRNA after 4 h”, the TI-B cells (TI-B cells) was “significant increase in the TI-B cells” and the “PLA signals (ternary complex formation NR4A1-VHL)” value (NR4A1 and VHL) was “induced strong PLA signals”.
